Source: the kinase profiling compilation of Christmann-Franck et al. (2016)

Tests used:
Experiment in all cases: KINOMEscan competition binding
Settings in all cases: compound 10.0 µM
ACVR2A (human) = ACVR2A (human) (UniProt P27037)
ADCK3 (human) = ADCK3 (human) (UniProt Q8NI60)
AKT2 (human) = AKT2 (human) (UniProt P31751)
[1] = tested on: BMX (human), P51813 [V600E]
CDK4 CCND1 (human) = CDK4 CCND1 (human) (UniProt P11802+P24385)
CSK (human) = CSK (human) (UniProt P41240)
DAPK2 (human) = DAPK2 (human) (UniProt Q9UIK4)
IRAK1 (human) = IRAK1 (human) (UniProt P51617)
IRAK3 (human) = IRAK3 (human) (UniProt Q9Y616)
[2] = molecular target: JAK1 JH2 pseudokinase (human) (UniProt P23458)
LATS1 (human) = LATS1 (human) (UniProt O95835)
LATS1 (human), sequence (O95835 whole entry, looked up): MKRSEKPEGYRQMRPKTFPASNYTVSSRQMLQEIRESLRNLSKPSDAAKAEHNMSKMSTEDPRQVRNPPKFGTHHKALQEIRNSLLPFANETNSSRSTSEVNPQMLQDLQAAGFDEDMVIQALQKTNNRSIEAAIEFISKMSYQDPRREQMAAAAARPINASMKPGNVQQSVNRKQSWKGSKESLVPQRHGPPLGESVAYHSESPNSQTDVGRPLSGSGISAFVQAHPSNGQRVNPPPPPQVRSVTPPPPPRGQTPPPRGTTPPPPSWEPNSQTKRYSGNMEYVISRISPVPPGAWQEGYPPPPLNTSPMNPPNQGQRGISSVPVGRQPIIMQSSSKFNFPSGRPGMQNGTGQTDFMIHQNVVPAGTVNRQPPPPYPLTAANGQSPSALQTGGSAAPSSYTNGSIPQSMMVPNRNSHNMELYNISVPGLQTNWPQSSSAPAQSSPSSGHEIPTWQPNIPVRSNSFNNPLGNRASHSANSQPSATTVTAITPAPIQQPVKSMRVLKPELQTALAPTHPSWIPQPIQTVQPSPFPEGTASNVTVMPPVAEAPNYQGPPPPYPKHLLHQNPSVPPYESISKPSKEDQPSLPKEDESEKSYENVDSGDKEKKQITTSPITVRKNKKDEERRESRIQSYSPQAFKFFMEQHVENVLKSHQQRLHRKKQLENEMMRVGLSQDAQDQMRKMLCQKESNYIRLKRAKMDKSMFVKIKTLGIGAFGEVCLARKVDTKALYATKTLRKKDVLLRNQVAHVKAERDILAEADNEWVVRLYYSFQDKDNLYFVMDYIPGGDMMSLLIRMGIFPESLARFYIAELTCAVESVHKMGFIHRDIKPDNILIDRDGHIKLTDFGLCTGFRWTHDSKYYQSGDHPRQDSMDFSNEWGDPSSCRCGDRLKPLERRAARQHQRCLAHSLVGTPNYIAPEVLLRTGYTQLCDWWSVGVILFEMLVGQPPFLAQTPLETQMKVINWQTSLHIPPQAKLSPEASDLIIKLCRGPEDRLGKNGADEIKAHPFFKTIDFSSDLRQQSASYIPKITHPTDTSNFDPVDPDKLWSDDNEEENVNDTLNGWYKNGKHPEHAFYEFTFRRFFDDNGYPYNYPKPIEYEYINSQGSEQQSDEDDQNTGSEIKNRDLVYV

LATS2 (human) = LATS2 (human) (UniProt Q9NRM7)
LYN (human) = LYN (human) (UniProt P07948)
LYN (human), sequence (P07948 whole entry, looked up): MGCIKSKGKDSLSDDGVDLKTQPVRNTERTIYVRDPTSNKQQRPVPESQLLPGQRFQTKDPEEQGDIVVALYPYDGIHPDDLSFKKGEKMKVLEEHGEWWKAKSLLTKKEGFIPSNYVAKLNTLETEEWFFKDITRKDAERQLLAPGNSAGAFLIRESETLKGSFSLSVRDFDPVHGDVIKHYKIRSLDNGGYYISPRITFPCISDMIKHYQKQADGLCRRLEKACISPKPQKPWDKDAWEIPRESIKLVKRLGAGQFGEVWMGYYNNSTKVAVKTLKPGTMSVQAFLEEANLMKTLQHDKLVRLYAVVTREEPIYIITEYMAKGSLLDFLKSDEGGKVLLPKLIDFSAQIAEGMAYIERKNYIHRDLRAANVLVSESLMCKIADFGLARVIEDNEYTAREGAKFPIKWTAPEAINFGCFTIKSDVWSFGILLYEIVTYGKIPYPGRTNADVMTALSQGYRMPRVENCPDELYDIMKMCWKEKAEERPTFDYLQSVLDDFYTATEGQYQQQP

MAP3K11 (human) = MAP3K11 (human) (UniProt Q16584)
MAP3K4 (human) = MAP3K4 (human) (UniProt Q9Y6R4)
MAPK7 (human) = MAPK7 (human) (UniProt Q13164)
MAPKAPK5 (human) = MAPKAPK5 (human) (UniProt Q8IW41)
MAPKAPK5 (human), sequence (Q8IW41 whole entry, looked up): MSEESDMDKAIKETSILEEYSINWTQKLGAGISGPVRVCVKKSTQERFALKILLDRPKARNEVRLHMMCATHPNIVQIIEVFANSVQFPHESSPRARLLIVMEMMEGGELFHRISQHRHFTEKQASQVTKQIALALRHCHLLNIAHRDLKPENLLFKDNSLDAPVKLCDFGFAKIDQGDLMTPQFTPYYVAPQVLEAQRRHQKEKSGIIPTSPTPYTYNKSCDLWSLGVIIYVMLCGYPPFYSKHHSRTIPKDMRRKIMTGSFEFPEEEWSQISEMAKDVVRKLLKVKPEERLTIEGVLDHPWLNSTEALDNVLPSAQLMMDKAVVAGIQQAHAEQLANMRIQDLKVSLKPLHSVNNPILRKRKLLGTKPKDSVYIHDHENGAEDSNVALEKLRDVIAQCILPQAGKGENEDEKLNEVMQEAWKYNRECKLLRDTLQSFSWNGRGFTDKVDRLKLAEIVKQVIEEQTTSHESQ

MAST1 (human) = MAST1 (human) (UniProt Q9Y2H9)
MAST1 (human), sequence (Q9Y2H9 whole entry, looked up): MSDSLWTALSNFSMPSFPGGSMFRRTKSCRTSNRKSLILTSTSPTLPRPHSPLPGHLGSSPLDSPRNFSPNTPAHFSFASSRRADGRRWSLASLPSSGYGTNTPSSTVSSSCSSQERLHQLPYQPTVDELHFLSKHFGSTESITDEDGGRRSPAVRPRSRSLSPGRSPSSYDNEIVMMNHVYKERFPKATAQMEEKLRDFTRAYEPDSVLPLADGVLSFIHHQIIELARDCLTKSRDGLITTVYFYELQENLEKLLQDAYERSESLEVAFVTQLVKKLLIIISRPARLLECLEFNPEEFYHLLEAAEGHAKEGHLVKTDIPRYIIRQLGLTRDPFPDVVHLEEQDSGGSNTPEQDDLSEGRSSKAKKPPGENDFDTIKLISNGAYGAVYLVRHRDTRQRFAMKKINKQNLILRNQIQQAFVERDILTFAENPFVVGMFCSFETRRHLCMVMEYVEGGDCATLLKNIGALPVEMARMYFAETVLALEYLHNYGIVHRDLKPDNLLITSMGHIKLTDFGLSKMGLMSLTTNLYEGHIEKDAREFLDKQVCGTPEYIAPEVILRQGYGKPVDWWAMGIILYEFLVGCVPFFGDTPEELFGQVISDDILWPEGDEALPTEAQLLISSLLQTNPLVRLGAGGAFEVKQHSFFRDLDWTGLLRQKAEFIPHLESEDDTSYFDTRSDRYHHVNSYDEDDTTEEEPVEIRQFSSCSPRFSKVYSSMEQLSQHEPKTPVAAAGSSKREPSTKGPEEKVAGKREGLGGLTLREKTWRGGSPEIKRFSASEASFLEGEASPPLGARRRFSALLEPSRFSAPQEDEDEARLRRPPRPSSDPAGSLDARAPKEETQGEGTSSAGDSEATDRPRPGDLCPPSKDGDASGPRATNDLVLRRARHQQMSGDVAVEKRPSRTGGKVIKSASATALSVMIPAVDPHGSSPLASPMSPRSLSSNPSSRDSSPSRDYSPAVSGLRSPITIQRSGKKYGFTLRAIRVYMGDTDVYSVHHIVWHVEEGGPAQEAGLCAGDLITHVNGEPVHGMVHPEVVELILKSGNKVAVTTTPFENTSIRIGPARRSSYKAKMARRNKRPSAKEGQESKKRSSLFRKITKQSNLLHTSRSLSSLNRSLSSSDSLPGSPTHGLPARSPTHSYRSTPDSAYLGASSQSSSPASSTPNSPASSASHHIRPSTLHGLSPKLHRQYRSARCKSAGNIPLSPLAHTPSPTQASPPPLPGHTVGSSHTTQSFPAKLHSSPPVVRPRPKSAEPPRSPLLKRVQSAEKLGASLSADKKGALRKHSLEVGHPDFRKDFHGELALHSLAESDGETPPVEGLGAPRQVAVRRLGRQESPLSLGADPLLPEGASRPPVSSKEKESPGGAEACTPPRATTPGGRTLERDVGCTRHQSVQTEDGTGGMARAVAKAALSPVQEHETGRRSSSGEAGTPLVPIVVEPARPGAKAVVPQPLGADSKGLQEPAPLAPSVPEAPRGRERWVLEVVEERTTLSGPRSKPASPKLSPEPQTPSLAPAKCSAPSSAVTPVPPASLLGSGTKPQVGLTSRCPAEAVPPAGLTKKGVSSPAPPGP

MYLK4 (human) = MYLK4 (human) (UniProt Q86YV6)
MYLK4 (human), sequence (Q86YV6 whole entry, looked up): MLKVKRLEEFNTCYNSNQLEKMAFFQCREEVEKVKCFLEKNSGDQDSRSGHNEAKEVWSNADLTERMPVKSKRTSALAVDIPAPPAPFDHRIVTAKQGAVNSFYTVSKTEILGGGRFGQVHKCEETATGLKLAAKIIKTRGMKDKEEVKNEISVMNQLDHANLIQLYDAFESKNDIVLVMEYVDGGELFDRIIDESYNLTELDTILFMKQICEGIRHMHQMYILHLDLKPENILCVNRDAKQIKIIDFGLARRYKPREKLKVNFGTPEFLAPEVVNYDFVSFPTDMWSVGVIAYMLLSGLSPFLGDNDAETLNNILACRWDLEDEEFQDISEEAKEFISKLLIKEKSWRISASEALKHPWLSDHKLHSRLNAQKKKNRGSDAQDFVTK

NEK3 (human) = NEK3 (human) (UniProt P51956)
NEK7 (human) = NEK7 (human) (UniProt Q8TDX7)
NEK7 (human), sequence (Q8TDX7 whole entry, looked up): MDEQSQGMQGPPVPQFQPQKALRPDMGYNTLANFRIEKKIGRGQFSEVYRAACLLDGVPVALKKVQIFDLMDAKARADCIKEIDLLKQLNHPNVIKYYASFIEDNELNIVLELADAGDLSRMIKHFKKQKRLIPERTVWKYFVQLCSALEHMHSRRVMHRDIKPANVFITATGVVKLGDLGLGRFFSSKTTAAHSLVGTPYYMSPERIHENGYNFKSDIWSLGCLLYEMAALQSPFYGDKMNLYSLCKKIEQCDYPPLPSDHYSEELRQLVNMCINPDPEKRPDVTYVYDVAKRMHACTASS

NUAK1 (human) = NUAK1 (human) (UniProt O60285)
OXSR1 (human) = OXSR1 (human) (UniProt O95747)
PIK3CD (human) = PIK3CD (human) (UniProt O00329)
PRKAA2 (human) = PRKAA2 (human) (UniProt P54646)
PRKCD (human) = PRKCD (human) (UniProt Q05655)
PRKCE (human) = PRKCE (human) (UniProt Q02156)
PRKCQ (human) = PRKCQ (human) (UniProt Q04759)
PRKD3 (human) = PRKD3 (human) (UniProt O94806)
PRKG2 (human) = PRKG2 (human) (UniProt Q13237)
PRKX (human) = PRKX (human) (UniProt P51817)
RIPK4 (human) = RIPK4 (human) (UniProt P57078)
SRMS (human) = SRMS (human) (UniProt Q9H3Y6)
SRPK1 (human) = SRPK1 (human) (UniProt Q96SB4)
STK25 (human) = STK25 (human) (UniProt O00506)
STK38L (human) = STK38L (human) (UniProt Q9Y2H1)
TEC (human) = TEC (human) (UniProt P42680)
TGFBR1 (human) = TGFBR1 (human) (UniProt P36897)
TNK1 (human) = TNK1 (human) (UniProt Q13470)
TNK1 (human), sequence (Q13470 whole entry, looked up): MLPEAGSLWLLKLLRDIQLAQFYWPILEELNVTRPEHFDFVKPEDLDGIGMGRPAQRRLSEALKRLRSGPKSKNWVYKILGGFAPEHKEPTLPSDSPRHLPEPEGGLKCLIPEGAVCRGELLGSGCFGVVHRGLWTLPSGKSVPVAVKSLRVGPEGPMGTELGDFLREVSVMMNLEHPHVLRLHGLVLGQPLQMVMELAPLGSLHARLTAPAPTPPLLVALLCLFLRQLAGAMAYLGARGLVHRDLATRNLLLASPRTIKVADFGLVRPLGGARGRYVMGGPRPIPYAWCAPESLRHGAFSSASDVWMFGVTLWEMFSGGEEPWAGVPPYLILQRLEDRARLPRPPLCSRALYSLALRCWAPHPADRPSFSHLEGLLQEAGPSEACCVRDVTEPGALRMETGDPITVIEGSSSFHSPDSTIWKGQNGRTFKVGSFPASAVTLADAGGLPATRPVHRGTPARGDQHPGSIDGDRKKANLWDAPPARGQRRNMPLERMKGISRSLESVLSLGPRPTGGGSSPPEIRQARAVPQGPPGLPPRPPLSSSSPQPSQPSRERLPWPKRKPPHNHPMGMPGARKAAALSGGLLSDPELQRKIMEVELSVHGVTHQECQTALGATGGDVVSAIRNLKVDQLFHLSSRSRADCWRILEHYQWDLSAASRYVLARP

TNNI3K (human) = TNNI3K (human) (UniProt Q59H18)

Compound	kinase still bound, per cent of control (ACVR2A (human))	kinase still bound, per cent of control (ADCK3 (human))	kinase still bound, per cent of control (AKT2 (human))	kinase still bound, per cent of control [1]	kinase still bound, per cent of control (CDK4 CCND1 (human))	kinase still bound, per cent of control (CSK (human))	kinase still bound, per cent of control (DAPK2 (human))	kinase still bound, per cent of control (IRAK1 (human))	kinase still bound, per cent of control (IRAK3 (human))	kinase still bound, per cent of control [2]	kinase still bound, per cent of control (LATS1 (human))	kinase still bound, per cent of control (LATS2 (human))	kinase still bound, per cent of control (LYN (human))	kinase still bound, per cent of control (MAP3K11 (human))	kinase still bound, per cent of control (MAP3K4 (human))	kinase still bound, per cent of control (MAPK7 (human))	kinase still bound, per cent of control (MAPKAPK5 (human))	kinase still bound, per cent of control (MAST1 (human))	kinase still bound, per cent of control (MYLK4 (human))	kinase still bound, per cent of control (NEK3 (human))	other results
CCN1CCN(Cc2ccc(NC(=O)c3ccc(C)c(/C=C/c4cnc5[nH]ccc5c4OC)c3)cc2C(F)(F)F)CC1	100%	100%	48%	0.05%	74%	0.75%	100%	26%	65%	41%	32%	79%	0%	3.6%	66%	73%	90%	100%	23%	77%	kinase still bound, per cent of control (NEK7 (human)): 64%; kinase still bound, per cent of control (NUAK1 (human)): 100%; kinase still bound, per cent of control (OXSR1 (human)): 74%; kinase still bound, per cent of control (PIK3CD (human)): 78%; kinase still bound, per cent of control (PRKAA2 (human)): 39%; kinase still bound, per cent of control (PRKCD (human)): 49%; kinase still bound, per cent of control (PRKCE (human)): 75%; kinase still bound, per cent of control (PRKCQ (human)): 31%; kinase still bound, per cent of control (PRKD3 (human)): 52%; kinase still bound, per cent of control (PRKG2 (human)): 91%; kinase still bound, per cent of control (PRKX (human)): 75%; kinase still bound, per cent of control (RIPK4 (human)): 56%; kinase still bound, per cent of control (SRMS (human)): 0.7%; kinase still bound, per cent of control (SRPK1 (human)): 1.8%; kinase still bound, per cent of control (STK25 (human)): 100%; kinase still bound, per cent of control (STK38L (human)): 35%; kinase still bound, per cent of control (TEC (human)): 0.5%; kinase still bound, per cent of control (TGFBR1 (human)): 100%; kinase still bound, per cent of control (TNK1 (human)): 1.4%; kinase still bound, per cent of control (TNNI3K (human)): 1%
COc1cc2ncnc(Nc3cccc(Cl)c3)c2cc1OC	92%	56%	100%	55%	90%	62%	60%	5.6%	30%	38%	100%	40%	11%	100%	83%	100%	9.9%	79%	78%	78%	kinase still bound, per cent of control (NEK7 (human)): 88%; kinase still bound, per cent of control (NUAK1 (human)): 98%; kinase still bound, per cent of control (OXSR1 (human)): 71%; kinase still bound, per cent of control (PIK3CD (human)): 71%; kinase still bound, per cent of control (PRKAA2 (human)): 100%; kinase still bound, per cent of control (PRKCD (human)): 97%; kinase still bound, per cent of control (PRKCE (human)): 75%; kinase still bound, per cent of control (PRKCQ (human)): 100%; kinase still bound, per cent of control (PRKD3 (human)): 88%; kinase still bound, per cent of control (PRKG2 (human)): 82%; kinase still bound, per cent of control (PRKX (human)): 100%; kinase still bound, per cent of control (RIPK4 (human)): 43%; kinase still bound, per cent of control (SRMS (human)): 60%; kinase still bound, per cent of control (SRPK1 (human)): 67%; kinase still bound, per cent of control (STK25 (human)): 77%; kinase still bound, per cent of control (STK38L (human)): 87%; kinase still bound, per cent of control (TEC (human)): 100%; kinase still bound, per cent of control (TGFBR1 (human)): 88%; kinase still bound, per cent of control (TNK1 (human)): 26%; kinase still bound, per cent of control (TNNI3K (human)): 38%
CNC(=O)Nc1ccc(-c2nc(N3CC4CCC(C3)O4)c3cnn(C4CCC5(CC4)OCCO5)c3n2)cc1	78%	86%	100%	100%	90%	100%	100%	100%	100%	83%	95%	76%	85%	100%	86%	100%	100%	95%	100%	100%	kinase still bound, per cent of control (NEK7 (human)): 100%; kinase still bound, per cent of control (NUAK1 (human)): 82%; kinase still bound, per cent of control (OXSR1 (human)): 100%; kinase still bound, per cent of control (PIK3CD (human)): 5.7%; kinase still bound, per cent of control (PRKAA2 (human)): 93%; kinase still bound, per cent of control (PRKCD (human)): 100%; kinase still bound, per cent of control (PRKCE (human)): 100%; kinase still bound, per cent of control (PRKCQ (human)): 100%; kinase still bound, per cent of control (PRKD3 (human)): 100%; kinase still bound, per cent of control (PRKG2 (human)): 88%; kinase still bound, per cent of control (PRKX (human)): 100%; kinase still bound, per cent of control (RIPK4 (human)): 98%; kinase still bound, per cent of control (SRMS (human)): 97%; kinase still bound, per cent of control (SRPK1 (human)): 100%; kinase still bound, per cent of control (STK25 (human)): 91%; kinase still bound, per cent of control (STK38L (human)): 100%; kinase still bound, per cent of control (TEC (human)): 84%; kinase still bound, per cent of control (TGFBR1 (human)): 100%; kinase still bound, per cent of control (TNK1 (human)): 78%; kinase still bound, per cent of control (TNNI3K (human)): 59%
